Our source for the % of control, % of inhibition and % binding values is ChEMBL document CHEMBL5465560, “Selectivity Literature for EUbOPEN Chemogenomic Library” (2024).

Assay [1] addresses Casein kinase I isoform gamma-2 (Homo sapiens) (UniProt P78368). Conditions: at 10 µM.
In assay [2] the target is T1, Discoidin domain-containing receptor 2 (Homo sapiens) (UniProt Q16832).
T1 sequence (whole entry): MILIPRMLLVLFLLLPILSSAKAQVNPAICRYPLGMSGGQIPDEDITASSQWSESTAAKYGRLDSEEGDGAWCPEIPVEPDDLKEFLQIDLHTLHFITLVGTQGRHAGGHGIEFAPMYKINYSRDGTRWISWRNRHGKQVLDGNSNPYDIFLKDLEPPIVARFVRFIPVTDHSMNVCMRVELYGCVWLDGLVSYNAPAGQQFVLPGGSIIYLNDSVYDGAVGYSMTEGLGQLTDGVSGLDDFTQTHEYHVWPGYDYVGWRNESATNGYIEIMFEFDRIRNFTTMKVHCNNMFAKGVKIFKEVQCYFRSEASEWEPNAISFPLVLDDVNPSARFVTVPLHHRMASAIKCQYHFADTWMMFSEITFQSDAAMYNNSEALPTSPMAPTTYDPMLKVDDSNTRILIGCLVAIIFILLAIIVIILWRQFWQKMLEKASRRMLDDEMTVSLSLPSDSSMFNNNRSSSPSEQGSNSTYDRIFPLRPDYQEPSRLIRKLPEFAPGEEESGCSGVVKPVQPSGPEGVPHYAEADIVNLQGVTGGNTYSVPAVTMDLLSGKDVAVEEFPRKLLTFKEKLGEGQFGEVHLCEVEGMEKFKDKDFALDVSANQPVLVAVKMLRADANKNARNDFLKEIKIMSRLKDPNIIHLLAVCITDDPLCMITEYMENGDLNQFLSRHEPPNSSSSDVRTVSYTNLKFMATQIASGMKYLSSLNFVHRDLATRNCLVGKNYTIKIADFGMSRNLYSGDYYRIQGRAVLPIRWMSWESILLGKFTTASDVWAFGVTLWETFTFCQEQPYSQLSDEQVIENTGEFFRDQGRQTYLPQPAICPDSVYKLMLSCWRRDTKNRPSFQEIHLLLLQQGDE
Conditions: at 10 µM.

For assay [3], the target named is T2, Mitogen-activated protein kinase kinase kinase 15 (Homo sapiens) (UniProt Q6ZN16).
T2 sequence (whole entry): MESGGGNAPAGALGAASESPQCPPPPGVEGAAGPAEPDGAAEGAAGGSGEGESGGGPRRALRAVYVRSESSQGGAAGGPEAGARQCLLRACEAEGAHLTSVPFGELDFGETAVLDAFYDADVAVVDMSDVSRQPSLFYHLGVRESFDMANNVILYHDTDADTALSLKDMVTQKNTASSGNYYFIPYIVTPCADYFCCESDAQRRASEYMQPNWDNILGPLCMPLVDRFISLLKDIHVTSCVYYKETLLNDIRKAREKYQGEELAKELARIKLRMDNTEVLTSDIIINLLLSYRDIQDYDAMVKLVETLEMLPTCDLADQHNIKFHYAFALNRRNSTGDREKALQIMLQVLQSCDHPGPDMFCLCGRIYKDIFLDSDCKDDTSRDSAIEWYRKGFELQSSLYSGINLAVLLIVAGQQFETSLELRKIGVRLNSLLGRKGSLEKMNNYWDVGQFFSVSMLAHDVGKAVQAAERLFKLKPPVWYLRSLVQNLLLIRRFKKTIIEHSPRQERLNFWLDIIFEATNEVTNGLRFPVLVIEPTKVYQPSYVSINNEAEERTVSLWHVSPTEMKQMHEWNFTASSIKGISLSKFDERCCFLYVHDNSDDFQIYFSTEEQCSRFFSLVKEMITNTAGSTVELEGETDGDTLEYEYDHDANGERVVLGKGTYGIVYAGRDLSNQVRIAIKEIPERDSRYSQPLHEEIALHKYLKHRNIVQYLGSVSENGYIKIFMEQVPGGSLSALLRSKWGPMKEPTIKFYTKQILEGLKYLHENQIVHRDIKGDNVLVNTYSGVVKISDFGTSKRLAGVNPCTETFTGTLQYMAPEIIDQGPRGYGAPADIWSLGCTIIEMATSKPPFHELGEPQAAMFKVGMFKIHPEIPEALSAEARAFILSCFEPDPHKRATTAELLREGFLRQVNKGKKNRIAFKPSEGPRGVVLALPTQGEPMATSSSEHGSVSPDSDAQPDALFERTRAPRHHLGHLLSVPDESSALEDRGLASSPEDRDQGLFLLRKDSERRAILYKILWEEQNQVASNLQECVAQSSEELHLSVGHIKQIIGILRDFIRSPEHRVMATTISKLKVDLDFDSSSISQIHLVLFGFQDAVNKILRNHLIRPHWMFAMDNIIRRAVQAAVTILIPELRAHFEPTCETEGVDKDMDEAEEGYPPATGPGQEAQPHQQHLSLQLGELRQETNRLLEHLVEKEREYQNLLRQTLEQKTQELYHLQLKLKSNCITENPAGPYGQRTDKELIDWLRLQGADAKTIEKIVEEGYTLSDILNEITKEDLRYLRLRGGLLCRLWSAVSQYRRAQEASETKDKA
Description: Selectivity interaction (KinomeScan (DiscoverX)) EUB0001619a MAP3K15. As to conditions: at 1 µM.

For another assay, the target named is Ephrin type-A receptor 4 (Homo sapiens, UniProt P54764). As to conditions: at 10 µM.
The target in a further assay is Activated CDC42 kinase 1 (Homo sapiens, UniProt Q07912). Description: Selectivity interaction (KinaseProfiler screening (Millipore)) EUB0000601a TNK2. Conditions: at 3 µM.
Sequence of Activated CDC42 kinase 1 (Q07912 whole entry, looked up): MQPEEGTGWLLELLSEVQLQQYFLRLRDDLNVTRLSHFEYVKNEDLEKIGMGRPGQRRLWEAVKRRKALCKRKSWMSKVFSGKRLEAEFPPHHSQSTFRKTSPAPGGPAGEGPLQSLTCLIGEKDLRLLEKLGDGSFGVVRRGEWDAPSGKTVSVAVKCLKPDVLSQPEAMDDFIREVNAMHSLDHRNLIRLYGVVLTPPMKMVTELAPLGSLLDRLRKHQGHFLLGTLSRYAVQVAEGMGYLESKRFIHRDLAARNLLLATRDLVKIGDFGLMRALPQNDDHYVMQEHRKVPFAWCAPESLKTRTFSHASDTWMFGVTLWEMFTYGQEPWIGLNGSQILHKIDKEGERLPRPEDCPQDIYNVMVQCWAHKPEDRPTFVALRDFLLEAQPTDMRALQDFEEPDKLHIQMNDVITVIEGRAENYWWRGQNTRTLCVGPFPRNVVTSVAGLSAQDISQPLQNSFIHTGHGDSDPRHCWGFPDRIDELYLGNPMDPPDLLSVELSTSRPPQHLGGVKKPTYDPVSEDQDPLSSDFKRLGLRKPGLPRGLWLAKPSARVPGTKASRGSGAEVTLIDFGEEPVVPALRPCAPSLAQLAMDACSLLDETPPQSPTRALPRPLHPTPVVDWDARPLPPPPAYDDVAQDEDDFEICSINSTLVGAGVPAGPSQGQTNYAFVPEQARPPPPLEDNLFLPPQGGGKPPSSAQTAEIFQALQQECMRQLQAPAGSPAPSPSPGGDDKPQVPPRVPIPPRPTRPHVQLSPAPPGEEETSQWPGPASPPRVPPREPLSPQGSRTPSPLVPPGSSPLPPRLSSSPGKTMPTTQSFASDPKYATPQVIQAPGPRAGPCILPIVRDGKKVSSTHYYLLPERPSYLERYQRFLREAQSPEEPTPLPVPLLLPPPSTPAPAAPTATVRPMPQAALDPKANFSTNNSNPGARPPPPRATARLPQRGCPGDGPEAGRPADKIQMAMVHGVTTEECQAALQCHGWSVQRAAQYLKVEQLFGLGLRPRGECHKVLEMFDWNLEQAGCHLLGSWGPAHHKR
Assay [4] has as its target Mitogen-activated protein kinase 11 (Homo sapiens) (UniProt Q15759). The assay is described as follows: Selectivity interaction (Kinase panel (Invitrogen)) EUB0000639a MAPK11. As to conditions: at 200 nM.
For assay [5], the target named is Serine/threonine-protein kinase 38 (Homo sapiens) (UniProt Q15208). The assay is described as follows: Selectivity interaction (ActivX KiNativ screen (kinase selectivity in THP-1 cell lysates)) EUB0000639a STK38. In kind it is subcellular. Conditions: lysate.
Sequence of Serine/threonine-protein kinase 38 (Homo sapiens) (Q15208 2-465 limits assumed): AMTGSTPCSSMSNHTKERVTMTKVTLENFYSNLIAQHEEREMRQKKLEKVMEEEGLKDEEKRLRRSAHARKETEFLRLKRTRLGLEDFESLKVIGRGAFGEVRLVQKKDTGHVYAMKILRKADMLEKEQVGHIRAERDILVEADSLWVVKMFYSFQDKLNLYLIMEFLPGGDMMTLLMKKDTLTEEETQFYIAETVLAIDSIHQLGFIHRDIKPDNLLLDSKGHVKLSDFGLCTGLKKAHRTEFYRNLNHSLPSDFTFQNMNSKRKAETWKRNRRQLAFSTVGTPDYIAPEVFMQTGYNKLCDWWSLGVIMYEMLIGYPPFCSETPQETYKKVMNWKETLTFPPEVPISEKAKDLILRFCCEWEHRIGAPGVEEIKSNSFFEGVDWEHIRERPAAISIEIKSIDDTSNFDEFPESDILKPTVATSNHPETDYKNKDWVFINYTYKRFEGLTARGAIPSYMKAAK
Assay [6] has as its target 5'-AMP-activated protein kinase catalytic subunit alpha-1 (Homo sapiens, UniProt Q13131). Description: Selectivity interaction (ActivX KiNativ screen (kinase selectivity in THP-1 cell lysates)) EUB0000639a PRKAA1. In kind it is subcellular. Conditions: lysate, at 5 µM.
Assay [7] concerns the target BDNF/NT-3 growth factors receptor (Homo sapiens) (UniProt Q16620). Description: Selectivity interaction (KinomeScan (DiscoverX)) EUB0000045b NTRK2.
Assay [8] concerns the target PAS domain-containing serine/threonine-protein kinase (Homo sapiens) (UniProt Q96RG2). Description: Selectivity interaction (ProQinase) EUB0000171b PASK.
Assay [9] deals with Eukaryotic translation initiation factor 2-alpha kinase 1 (Homo sapiens) (UniProt Q9BQI3). The assay is described as follows: Selectivity interaction (KinomeScan (DiscoverX)) EUB0001079a EIF2AK1. As to conditions: at 1 µM.
Sequence of Eukaryotic translation initiation factor 2-alpha kinase 1 (Homo sapiens) (Q9BQI3 whole entry): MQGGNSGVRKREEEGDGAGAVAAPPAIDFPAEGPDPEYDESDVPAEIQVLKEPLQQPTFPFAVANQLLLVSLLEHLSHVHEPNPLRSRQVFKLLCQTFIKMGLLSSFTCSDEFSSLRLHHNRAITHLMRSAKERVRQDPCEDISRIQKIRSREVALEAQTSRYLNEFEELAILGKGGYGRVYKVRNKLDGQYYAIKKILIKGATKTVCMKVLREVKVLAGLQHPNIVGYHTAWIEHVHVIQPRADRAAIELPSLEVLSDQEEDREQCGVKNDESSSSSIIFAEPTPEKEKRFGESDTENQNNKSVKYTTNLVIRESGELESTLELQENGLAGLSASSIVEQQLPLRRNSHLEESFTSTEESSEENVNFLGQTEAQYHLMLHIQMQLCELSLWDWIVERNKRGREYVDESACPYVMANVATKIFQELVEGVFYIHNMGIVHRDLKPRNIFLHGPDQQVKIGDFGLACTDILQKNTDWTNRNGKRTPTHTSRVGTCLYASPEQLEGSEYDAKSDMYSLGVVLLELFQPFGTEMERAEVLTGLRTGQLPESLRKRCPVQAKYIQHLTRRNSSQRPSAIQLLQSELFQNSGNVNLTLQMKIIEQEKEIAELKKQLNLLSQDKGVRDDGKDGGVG
The target of assay [10] is Ribosomal protein S6 kinase alpha-4 (Homo sapiens) (UniProt O75676). The assay is described as follows: Selectivity interaction (KinomeScan (DiscoverX)) EUB0000229b RPS6KA4. Conditions: at 10 µM.

Sequence of PAS domain-containing serine/threonine-protein kinase (Homo sapiens) (Q96RG2 whole entry, the tested form may be a part): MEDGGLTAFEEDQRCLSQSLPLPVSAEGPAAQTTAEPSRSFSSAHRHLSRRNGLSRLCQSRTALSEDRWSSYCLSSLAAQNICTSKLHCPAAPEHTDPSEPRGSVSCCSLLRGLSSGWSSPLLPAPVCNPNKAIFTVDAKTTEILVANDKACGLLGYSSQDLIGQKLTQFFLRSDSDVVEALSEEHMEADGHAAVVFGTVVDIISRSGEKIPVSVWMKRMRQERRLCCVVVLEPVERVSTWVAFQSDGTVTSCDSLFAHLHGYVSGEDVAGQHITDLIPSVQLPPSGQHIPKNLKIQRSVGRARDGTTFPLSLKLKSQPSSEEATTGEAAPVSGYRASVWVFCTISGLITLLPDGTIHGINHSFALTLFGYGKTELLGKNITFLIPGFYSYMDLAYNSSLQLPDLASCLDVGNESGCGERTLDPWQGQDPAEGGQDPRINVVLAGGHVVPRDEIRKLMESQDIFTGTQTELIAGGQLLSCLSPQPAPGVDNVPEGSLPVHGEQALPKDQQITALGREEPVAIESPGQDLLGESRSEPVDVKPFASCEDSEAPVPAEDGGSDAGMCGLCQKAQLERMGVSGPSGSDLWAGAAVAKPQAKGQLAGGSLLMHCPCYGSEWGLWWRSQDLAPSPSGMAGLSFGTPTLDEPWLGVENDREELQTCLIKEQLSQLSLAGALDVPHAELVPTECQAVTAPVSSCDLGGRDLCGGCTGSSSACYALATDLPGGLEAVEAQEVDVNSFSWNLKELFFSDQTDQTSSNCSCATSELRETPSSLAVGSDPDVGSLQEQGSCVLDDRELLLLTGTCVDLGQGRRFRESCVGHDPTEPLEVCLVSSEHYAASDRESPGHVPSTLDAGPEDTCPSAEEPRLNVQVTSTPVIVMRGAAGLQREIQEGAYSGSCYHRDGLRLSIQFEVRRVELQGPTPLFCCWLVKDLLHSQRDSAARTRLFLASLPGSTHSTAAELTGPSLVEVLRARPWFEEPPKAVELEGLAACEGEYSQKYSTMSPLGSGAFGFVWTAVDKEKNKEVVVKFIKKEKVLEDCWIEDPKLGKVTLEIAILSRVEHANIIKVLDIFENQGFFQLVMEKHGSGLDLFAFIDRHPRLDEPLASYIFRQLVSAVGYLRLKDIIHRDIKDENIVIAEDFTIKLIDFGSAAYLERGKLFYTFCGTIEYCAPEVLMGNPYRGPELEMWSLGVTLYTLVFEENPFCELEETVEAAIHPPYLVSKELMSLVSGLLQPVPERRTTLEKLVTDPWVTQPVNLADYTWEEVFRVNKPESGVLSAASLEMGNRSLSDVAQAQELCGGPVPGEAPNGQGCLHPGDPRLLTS
Sequence of BDNF/NT-3 growth factors receptor (Homo sapiens) (Q16620 32-822 limits assumed): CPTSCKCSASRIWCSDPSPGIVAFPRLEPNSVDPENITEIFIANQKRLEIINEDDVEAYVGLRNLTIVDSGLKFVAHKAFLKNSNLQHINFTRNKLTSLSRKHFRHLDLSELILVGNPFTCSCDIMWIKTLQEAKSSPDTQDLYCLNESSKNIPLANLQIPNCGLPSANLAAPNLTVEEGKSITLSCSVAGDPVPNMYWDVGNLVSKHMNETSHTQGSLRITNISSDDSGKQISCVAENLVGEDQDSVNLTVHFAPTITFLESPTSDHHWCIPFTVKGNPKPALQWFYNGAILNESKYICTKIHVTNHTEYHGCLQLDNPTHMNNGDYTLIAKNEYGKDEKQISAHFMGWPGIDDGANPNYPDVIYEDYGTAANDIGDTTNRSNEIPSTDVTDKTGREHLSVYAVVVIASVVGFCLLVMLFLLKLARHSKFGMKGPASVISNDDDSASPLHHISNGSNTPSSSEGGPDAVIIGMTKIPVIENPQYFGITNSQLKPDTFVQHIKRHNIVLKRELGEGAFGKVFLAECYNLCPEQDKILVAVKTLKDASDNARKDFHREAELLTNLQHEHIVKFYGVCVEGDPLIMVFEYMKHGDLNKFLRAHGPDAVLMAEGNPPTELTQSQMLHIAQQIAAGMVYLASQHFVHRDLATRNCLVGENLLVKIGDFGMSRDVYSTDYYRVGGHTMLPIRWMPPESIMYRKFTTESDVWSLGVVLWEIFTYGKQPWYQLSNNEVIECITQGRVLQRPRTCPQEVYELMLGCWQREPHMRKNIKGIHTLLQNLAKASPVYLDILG
Sequence of 5'-AMP-activated protein kinase catalytic subunit alpha-1 (Q13131 whole entry, looked up): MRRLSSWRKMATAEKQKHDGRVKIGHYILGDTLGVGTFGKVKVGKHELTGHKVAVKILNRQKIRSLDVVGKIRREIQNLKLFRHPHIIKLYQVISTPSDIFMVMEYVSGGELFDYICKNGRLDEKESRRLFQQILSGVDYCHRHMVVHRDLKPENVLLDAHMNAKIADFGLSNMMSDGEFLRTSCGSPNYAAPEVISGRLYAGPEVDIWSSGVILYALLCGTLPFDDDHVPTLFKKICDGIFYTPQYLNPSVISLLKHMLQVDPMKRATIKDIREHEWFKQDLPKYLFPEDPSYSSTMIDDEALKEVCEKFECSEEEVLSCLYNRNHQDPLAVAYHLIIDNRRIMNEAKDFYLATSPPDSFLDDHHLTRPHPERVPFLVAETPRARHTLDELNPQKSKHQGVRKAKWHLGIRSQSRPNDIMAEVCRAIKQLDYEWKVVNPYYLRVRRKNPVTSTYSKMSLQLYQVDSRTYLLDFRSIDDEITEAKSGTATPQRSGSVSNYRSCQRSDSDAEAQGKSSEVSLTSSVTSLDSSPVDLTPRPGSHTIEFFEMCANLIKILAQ

On to `COCC(=O)NC/C=C/c1ccc2ncnc(Nc3ccc(Oc4ccc(C)nc4)c(C)c3)c2c1` [CP-724714], for which the % of control in [1] and in [2] was 100% in each case.
As to `N#Cc1cccc(-c2c[nH]c3ncnc(N4CCOCC4)c23)c1`, the % of control in [3] was found to be 74%.
`CCN(CC)CCCCNc1ncc2cc(-c3cc(OC)cc(OC)c3)c(NC(=O)NC(C)(C)C)nc2n1` came in with a % of control at Ephrin type-A receptor 4 of 100%.
Regarding `CCc1cc(Nc2nccc(-c3c(-c4ccc(OC)c(C(=O)Nc5c(F)cccc5F)c4)nc4ccccn34)n2)c(OC)cc1N1CCC(N2CCN(S(C)(=O)=O)CC2)CC1`, at Activated CDC42 kinase 1, the % of inhibition was 34%.
With `CC[C@@H]1[C@H](F)C(=O)N[C@@H]1COc1nccc2cc(C(N)=O)c(OC)cc12` [ZIMLOVISERTIB], the % of inhibition is 5.62% in assay [4]; -3.8% in [5] (at 0.01 µM); 5.4% in assay [5] (at 0.04 µM); 31.8% in assay [5] (at 0.2 µM); 70.6% in assay [5] (at 1 µM); 90% in assay [5] (at 5 µM). The % of inhibition in assay [6] came out at 18.6%.
Take `C=CC(=O)Nc1cc(-n2c(=O)ccc3cnc4ccc(-c5ccc(NS(C)(=O)=O)cc5)cc4c32)ccc1C`: the % of control is 62% in assay [7] (at 1 µM) and 78% in assay [7] (at 10 µM).
As for `C=CC(=O)Nc1cccc(C(=O)Nc2ccc(Nc3cc(-c4[nH]c(SC)nc4C)ccn3)cc2)c1`, the results for the % of control in assay [8] (at 1 µM) and in assay [8] (at 5 µM) were 81% and 55%, respectively.
As for `Nc1cnc(N2CCc3cc(S(=O)(=O)Nc4c(F)cc(Cl)cc4F)cc(N4CCCC4=O)c32)nc1` [TP-020n], the % of control in assay [9] is 94%.
Consider `COc1cc(N(C)c2ccnc3ccc(C(F)(F)F)cc23)cc(OC)c1OC`, for which, in [10], the % binding was determined as 72%.
